Where two headings read alike, the source gives them in different places.
Experiments:
rice seeds = details: seed soaking 24 h, tested after 6 d
[1] = tested on: pathogen of bacterial leaf streak (Xanthomonas oryzaes pv. Oryzicola); type: cell-based; details: for Inhibition rate of bacterial growth (%): immersed 24 h, growth observed after 3 d

In the case of CCCCCCCCCCCC[N+](C)(C)Cc1ccccc1.[Br-] [Dodecyl dimethyl benzyl ammonium bromide, dodecyl dimethyl benzyl ammonium bromide], the “Bud length (mm)” value (rice seeds; multiple for dilution 1500) is reported as 21 mm, the “Germination rate of seed (%)” value (rice seeds; multiple for dilution 1500) is reported as 55% and the “Root length (mm)” value (rice seeds; multiple for dilution 1500) is reported as 20 mm. For the same molecule, the “Bud length (mm)” value (rice seeds; multiple for dilution 2000) was 26 mm, the “Germination rate of seed (%)” value (rice seeds; multiple for dilution 2000) was 56% and the “Root length (mm)” value (rice seeds; multiple for dilution 2000) was 28 mm. For the same molecule, the “inhibitory effect on the pathogen of bacterial leaf streak of rice (in words)” value ([1]; dilutions 1:500 to 1:2000) was “a certain inhibitory effect”, the “Inhibition rate of bacterial growth (%)” value ([1]; multiple for dilution 500) was 41% and the “Inhibition rate of bacterial growth (%)” value ([1]; multiple for dilution 1000) was 32%. For the same molecule, the “Inhibition rate of bacterial growth (%)” value ([1]; multiple for dilution 1500) was 30% and the “Inhibition rate of bacterial growth (%)” value ([1]; multiple for dilution 2000) was 23%.
